“Also recorded” adds a separate entry of the source. Non-standard residues stand in square brackets, D forms with d. Residues, ends and D or L forms follow the SMILES beside them.
Legend:
[1] = system: serum LH and testosterone; assay: Kisspeptin-10 stimulated LH and testosterone in intact male rats, icv injections; assay type: in vivo, rat; conditions: for LH secretory response to kisspeptin-10 (AUC): 1 nmol icv with 100 pmol kisspeptin-10, 120-min period after co-injection; for testosterone levels vs kisspeptin-10 alone: 60 min after combined injection with kisspeptin-10
Method: Adult male rats (BW: 280-310 g) bred in the vivarium of the University of Córdoba were used. The animals were maintained under constant conditions of light (14 h of light, from 0700 h) and temperature (22 C), and, before cannula implantation, were kept in groups of four rats per cage with free access to pelleted food and tap water. Experimental procedures were approved by the Córdoba University Ethical Committee for animal experimentation and were conducted in accordance with the European Union normative for care and use of experimental animals.
The animals were implanted with icy cannulae under light ether anaesthesia and caged individually thereafter. To allow delivery of compounds into the lateral cerebral ventricle, the cannulae were lowered to a depth of 4 mm beneath the surface of the skull; the insert point was 1 mm posterior and 1.2 mm lateral to bregma. Functional tests were conducted at least 24-48 h after cannula implantation.
Pharmacological tests in intact males involved 5 μl injections at 60 min intervals (icy) of 1 nmol doses of the peptide 234. The last injection was accompanied by the injection of an effective (but sub-maximal) dose of 100 pmol kisspeptin-10 (Phoenix Pharmaceuticals Ltd). Animals injected with vehicle (physiological saline) served as controls. Blood samples (250 μL) were taken by jugular venipuncture at 15- and 60-min following each icy injection. In addition, blood samples were taken immediately before initiation of the experiment (time: 0-min) and at 120-min after last injection (time: 240-min). Experimental procedures and kisspeptin doses were selected on the basis of previous studies (16, 34, 48). For each time-point, 10-12 samples were taken per group.
Serum LH levels were measured in a volume of 50 μl using a double-antibody method and radioimmunoassay kits supplied by the NIH (Dr. AF Parlow, NIDDK). Rat LH-I-10 was labeled with ^125I using Iodo-Gen precoated tubes, following the instructions of the manufacturer (Pierce), and hormone concentrations were expressed using reference preparation LH-RP-3 as standard. Intra- and inter-assay coefficients of variation were below 8 and 10%, respectively. The sensitivity of the assay was 5 pg/tube. In addition, serum testosterone (T) measurements were selectively conducted in blood samples taken 60-min after co-administration of kp-10 and peptide 234 (Time: 180-min). To this end, a commercial kit from MP Biomedicals was used, following the instructions of the manufacturer. The sensitivity of the assay was 0.1 ng/tube and the intra-assay coefficient of variation was 4.5%. For each hormone, all samples were measured in the same assay. Accuracy of hormone determinations was confirmed by assessment of rat serum samples of known hormone concentrations used as external controls.
Hormonal determinations were conducted in duplicate, with a minimal total number of 10 samples per group. When appropriate, in addition to individual time-point measurements, integrated LH secretory responses were calculated as the area under the curve (AUC), following the trapezoidal rule. Hormonal data are presented as mean±SEM. Results were analyzed for statistically significant differences using Student t-test or ANOVA followed by Student-Newman-Keuls multiple range test (SigmaStat 2.0). P≦0.05 was considered significant.

[2] = system: CHO cells stably expressing human gpr-54; assay: Cell migration (wound healing) assay in CHO cells; assay type: cell-based, Chinese hamster
Method: (§1) Human Umbilical Vein Endothelial Cells (HUVECs) isolated from neonatal umbilical cord were used as they endogenously express gpr-54, which is though to be involved in cell migration in the placenta. Chinese hamster ovary (CHO) cells which stably express the human gpr-54 receptor were used as a model cell line for wound healing assays. […] Complete media was added along with 1 nM Kisspeptin-10 for HUVECs and 100 nM Kisspeptin-10 for CHO cells, the optimal concentrations to inhibit cell migration (wound healing) in each cell type, in the presence and absence of antagonist 233, 234, 273 and 276 for HUVECs and 234 for CHOs. […] Cells were photographed on the axiovert 2000 at 20× magnification in phase contrast (Hori et al., 2001. Metastin suppresses the motility and growth of CHO cells transfected with its receptor. Biochem Biophys Res Commun 286, 958-963; Stafford et al., 2002, Identification and characterization of mouse metastasis-suppressor KiSS1 and its G-protein-coupled receptor. Cancer Res 62, 5399-5404).

[3] = system: HUVECs (Human Umbilical Vein Endothelial Cells); assay: Cell migration (wound healing) assay in HUVECs; assay type: cell-based
Method: as §1

Row | Compound | LH secretory response to kisspeptin-10 (AUC) [1] | LH secretory response to kisspeptin-10 (AUC) ([1]; listed as peptide 234) | basal LH levels ([1]; 1 nmol icv, 15, 60, 75 and 120 min after injection) | testosterone levels vs kisspeptin-10 alone [1] | testosterone levels vs kisspeptin-10 alone ([1]; listed as peptide 234) | effect on inhibition of cell migration by 100 nM Kisspeptin ([2]; 22 hrs) | inhibition of migration by 1 nM Kisspeptin in the presence of peptide ([3]; 22 hrs) [%] | serum LH levels ([1]; central injection to vehicle-treated animals at 120 min) | inhibition of cell migration ([2]; 100 nM) [%] | inhibition of migration in to the wound ([3]; 1 nM) [%]
1 | CC(=O)N[C@H](C)C(=O)N[C@@H](CC(N)=O)C(=O)N[C@@H](Cc1c[nH]c2ccccc12)C(=O)N[C@@H](CC(N)=O)C(=O)NCC(=O)N[C@@H](Cc1ccccc1)C(=O)NCC(=O)N[C@H](Cc1c[nH]c2ccccc12)C(=O)N[C@@H](CCCNC(=N)N)C(=O)N[C@@H](Cc1ccccc1)C(N)=O [Peptide 234] (Ac-[dA]NWNGFG[dW]RF-NH2) | inhibits; also recorded: blocked | significantly blunted | did not significantly modify | blocked | lower | completely abolishes | 10 | – | – | –
2 | CC(C)C[C@H](NC(=O)CNC(=O)[C@H](Cc1ccccc1)NC(=O)[C@H](CO)NC(=O)[C@H](CC(N)=O)NC(=O)[C@H](Cc1c[nH]c2ccccc12)NC(=O)[C@H](CC(N)=O)NC(=O)[C@@H](N)Cc1ccc(O)cc1)C(=O)N[C@@H](CCCNC(=N)N)C(=O)N[C@@H](Cc1ccccc1)C(N)=O [Kiss, reference compound] | – | – | – | – | – | – | – | evoked the expected rise | 50 | 50
